Assay results published in US20250145640A1, “2,2-DIFLUORO-5H-[1,3]DIOXOLO[4,5-F]ISOINDOL-7-ONE DERIVATIVES AS PESTICIDES” (SYNGENTA CROP PROTECTION AG, priority 2021, published 2025).

Key:
Format in all cases: in vivo
[1] = system: Chilo suppressalis (Striped Rice Stemborer); experiment: Example B1: Activity against Chilo suppressalis, artificial diet in 24-well microtiter plates; details: 144 h, application rate 200 ppm, L2 larvae, assessed 6 days after infestation, read-out: control (at least one of mortality, anti-feedant effect, growth inhibition)
Procedure: Example B1: Activity Against Chilo suppressalis (Striped Rice Stemborer)
24-well microtiter plates with artificial diet were treated with aqueous test solutions prepared from 10′000 ppm DMSO stock solutions by pipetting. After drying, the plates were infested with L2 larvae (6-8 per well). The samples were assessed for mortality, anti-feeding effect, and growth inhibition in comparison to untreated samples 6 days after infestation. Control of Chilo suppressalis by a test sample is given when at least one of the categories mortality, anti-feedant effect, and growth inhibition is higher than the untreated sample.

[2] = system: Diabrotica Balteata (Corn Root Worm); experiment: Example B2: Activity against Diabrotica balteata, sprayed maize sprouts on agar; details: 96 h, application rate 200 ppm, L2 larvae, assessed 4 days after infestation, read-out: effect in at least one of the two categories (mortality or growth inhibition)
Procedure: Example B2: Activity Against Diabrotica Balteata (Corn Root Worm)
Maize sprouts placed onto an agar layer in 24-well microtiter plates were treated with aqueous test solutions prepared from 10′000 ppm DMSO stock solutions by spraying. After drying, the plates were infested with L2 larvae (6 to 10 per well). The samples were assessed for mortality and growth inhibition in comparison to untreated samples 4 days after infestation.

[3] = system: Euschistus heros (Neotropical Brown Stink Bug); experiment: Example B3: Activity against Euschistus heros, sprayed soybean leaves on agar; details: 120 h, application rate 200 ppm, N2 nymphs, assessed 5 days after infestation, read-out: effect in at least one of the two categories (mortality or growth inhibition)
Procedure: Example B3: Activity Against Euschistus heros (Neotropical Brown Stink Bug)
Soybean leaves on agar in 24-well microtiter plates were sprayed with aqueous test solutions prepared from 10′000 ppm DMSO stock solutions. After drying the leaves were infested with N2 nymphs. The samples were assessed for mortality and growth inhibition in comparison to untreated samples 5 days after infestation.

[4] = system: Myzus persicae (Green peach aphid); experiment: Example B4: Activity against Myzus persicae, feeding/contact activity on sunflower leaf discs; details: foliar, 144 h, application rate 200 ppm, aphid population of mixed ages, assessed 6 days after infestation
Procedure: Example B4: Activity against Myzus persicae (Green peach aphid) Feeding/Contact activity Sunflower leaf discs were placed onto agar in a 24-well microtiter plate and sprayed with aqueous test solutions prepared from 10′000 ppm DMSO stock solutions. After drying, the leaf discs were infested with an aphid population of mixed ages. The samples were assessed for mortality 6 days after infestation.

[5] = system: Plutella xylostella (Diamond Back Moth); experiment: Example B5: Activity against Plutella xylostella, artificial diet in 24-well microtiter plates; details: 192 h, application rate 200 ppm, eggs, assessed 8 days after infestation, read-out: effect in at least one of the two categories (mortality or growth inhibition)
Procedure: Example B5: Activity Against Plutella xylostella (Diamond Back Moth)
24-well microtiter plates with artificial diet were treated with aqueous test solutions prepared from 10′000 ppm DMSO stock solutions by pipetting. After drying, Plutella eggs were pipetted through a plastic stencil onto a gel blotting paper and the plate was closed with it. The samples were assessed for mortality and growth inhibition in comparison to untreated samples 8 days after infestation.

[6] = system: Spodoptera littoralis (Egyptian Cotton Leaf Worm); experiment: Example B6: Activity against Spodoptera littoralis, sprayed cotton leaf discs on agar; details: foliar, 72 h, application rate 200 ppm, L1 larvae, assessed 3 days after infestation, read-out: control (at least one of mortality, anti-feedant effect, growth inhibition)
Procedure: Example B6: Activity Against Spodoptera littoralis (Egyptian Cotton Leaf Worm)
Cotton leaf discs were placed onto agar in 24-well microtiter plates and sprayed with aqueous test solutions prepared from 10′000 ppm DMSO stock solutions. After drying the leaf discs were infested with five L1 larvae. The samples were assessed for mortality, anti-feeding effect, and growth inhibition in comparison to untreated samples 3 days after infestation. Control of Spodoptera littoralis by a test sample is given when at least one of the categories mortality, anti-feedant effect, and growth inhibition is higher than the untreated sample.

CCS(=O)(=O)c1c(N2Cc3cc4c(cc3C2=O)OC(F)(F)O4)nn2cc(C3CC3)ccc12 [P4, 6-(6-cyclopropyl-3-ethylsulfonyl-pyrazolo[1,5-a]pyridin-2-yl)-2,2-difluoro-5H-[1,3]dioxolo[4,5-f]isoindol-7-one]
≥ 80%: control (mortality, anti-feedant effect or growth inhibition) at 200 ppm [1] | percent effect (mortality or growth inhibition) at 200 ppm [2] | percent effect (mortality or growth inhibition) at 200 ppm [3] | mortality at 200 ppm [4] | percent effect (mortality or growth inhibition) at 200 ppm [5] | percent control (mortality, anti-feedant effect or growth inhibition) at 200 ppm [6]
